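Step 1: Grow cells in 96-well plates. Step 2: Expose to compound for 48 hours at 5 concentrations. Step 3: Interpolate endpoints linearly; if unreached, use highest concentration. TGI marks complete inhibition of growth.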
Columns and labels:
Assay in all cases: NCI anticancer screen, dose series, 48 h
[1] = system: NCI-H23 lung
[2] = system: SF-268 CNS
[3] = system: OVCAR-4 ovarian
[4] = system: NCI-H226 lung
[5] = system: SK-OV-3 ovarian
[6] = system: SW-620 colon
[7] = system: HCT-116 colon
[8] = system: DMS 273 small cell lung
[9] = system: M19-MEL melanoma
[10] = system: SNB-75 CNS
[11] = system: TK-10 renal
[12] = system: DMS 114 small cell lung
[13] = system: SNB-78 CNS
[14] = system: SNB-19 CNS
[15] = system: CCRF-CEM leukemia
[16] = system: EKVX NSCLC
[17] = system: SK-MEL-5 melanoma
[18] = system: NCI-H522 lung
[19] = system: COLO 205 colon
[20] = system: UACC-257 melanoma
[21] = system: HT29 colon
[22] = system: IGROV1 ovarian
[23] = system: LXFL 529 NSCLC
[24] = system: OVCAR-5 ovarian
[25] = system: HOP-18 NSCLC
[26] = system: U251 CNS
[27] = system: RXF 393 renal
[28] = system: RPMI-8226 leukemia
[29] = system: M14 melanoma
[30] = system: MALME-3M melanoma
[31] = system: CAKI-1 renal
[32] = system: KM20L2 colon
[33] = system: UO-31 renal
[34] = system: HL-60(TB) leukemia
[35] = system: XF 498 CNS
[36] = system: SK-MEL-2 melanoma
[37] = system: A549 NSCLC
[38] = system: ACHN renal
[39] = system: K-562 leukemia
[40] = system: A498 renal
[41] = system: UACC-62 melanoma
[42] = system: SF-539 CNS
[43] = system: SK-MEL-28 melanoma
[44] = system: SN12C renal
[45] = system: 786-0 renal
[46] = system: NCI-H460 lung
[47] = system: HOP-92 NSCLC
[48] = system: HOP-62 NSCLC
[49] = system: DLD-1 colon
[50] = system: SF-295 CNS
[51] = system: MOLT-4 leukemia
[52] = system: OVCAR-8 ovarian
[53] = system: HCC-2998 colon
[54] = system: LOX IMVI melanoma
[55] = system: KM12 colon
[56] = system: HCT-15 colon
[57] = system: OVCAR-3 ovarian
[58] = system: SR leukemia
[59] = system: RXF-631 renal

Structure (SMILES): CSC(SC)=C1Sc2cccc(Cl)c2S1
- TGI [1]: > 100 µM
- TGI [2]: > 100 µM
- TGI [3]: > 100 µM
- TGI [4]: > 100 µM
- TGI [5]: > 100 µM
- TGI [6]: > 100 µM
- TGI [7]: > 100 µM
- TGI [8]: > 100 µM
- TGI [9]: > 100 µM
- TGI [10]: > 100 µM
- TGI [11]: > 100 µM
- TGI [12]: 79.8 µM
- TGI [13]: > 100 µM
- TGI [14]: > 100 µM
- TGI [15]: > 100 µM
- TGI [16]: > 100 µM
- TGI [17]: > 100 µM
- TGI [18]: 63.8 µM
- TGI [19]: 41.3 µM
- TGI [20]: > 100 µM
- TGI [21]: > 100 µM
- TGI [22]: > 100 µM
- TGI [23]: > 100 µM
- TGI [24]: > 100 µM
- TGI [25]: > 100 µM
- TGI [26]: > 100 µM
- TGI [27]: 88.1 µM
- TGI [28]: > 100 µM
- TGI [29]: > 100 µM
- TGI [30]: > 100 µM
- TGI [31]: > 100 µM
- TGI [32]: > 100 µM
- TGI [33]: > 100 µM
- TGI [34]: 45.9 µM
- TGI [35]: 76.9 µM
- TGI [36]: 48.8 µM
- TGI [37]: > 100 µM
- TGI [38]: > 100 µM
- TGI [39]: > 100 µM
- TGI [40]: > 100 µM
- TGI [41]: > 100 µM
- TGI [42]: > 100 µM
- TGI [43]: > 100 µM
- TGI [44]: > 100 µM
- TGI [45]: > 100 µM
- TGI [46]: > 100 µM
- TGI [47]: 65.8 µM
- TGI [48]: > 100 µM
- TGI [49]: > 100 µM
- TGI [50]: > 100 µM
- TGI [51]: > 100 µM
- TGI [52]: > 100 µM
- TGI [53]: 44.9 µM
- TGI [54]: > 100 µM
- TGI [55]: > 100 µM
- TGI [56]: > 100 µM

Structure (SMILES): CCCCCCCCCCCCOC(=N)N1CCOCC1
- TGI [1]: 27.4 µM
- TGI [2]: 30.4 µM
- TGI [3]: 21.2 µM
- TGI [4]: 37.2 µM
- TGI [5]: 34.1 µM
- TGI [6]: 16.6 µM
- TGI [7]: 22.6 µM
- TGI [8]: 25.1 µM
- TGI [9]: 17.7 µM
- TGI [10]: 29.9 µM
- TGI [11]: 31.6 µM
- TGI [12]: 19.7 µM
- TGI [13]: 27.8 µM
- TGI [14]: 35.5 µM
- TGI [15]: 9.44 µM
- TGI [16]: 26.4 µM
- TGI [17]: 23.4 µM
- TGI [18]: 30.4 µM
- TGI [19]: 3.45 µM
- TGI [20]: 23.9 µM
- TGI [21]: 4.11 µM
- TGI [22]: 27.7 µM
- TGI [23]: 15.1 µM
- TGI [24]: 28.5 µM
- TGI [25]: 16.3 µM
- TGI [26]: 21.9 µM
- TGI [27]: 25.9 µM
- TGI [28]: 5.15 µM
- TGI [29]: 14.1 µM
- TGI [30]: 34.5 µM
- TGI [57]: 30.3 µM
- TGI [58]: 4.53 µM
- TGI [31]: 17.3 µM
- TGI [32]: 13.4 µM
- TGI [33]: 26.8 µM
- TGI [34]: 3.26 µM
- TGI [35]: 29.7 µM
- TGI [36]: 23.9 µM
- TGI [37]: 30.4 µM
- TGI [38]: 27.7 µM
- TGI [39]: 7.47 µM
- TGI [40]: > 52.3 µM
- TGI [41]: 24.7 µM
- TGI [59]: 22.6 µM
- TGI [42]: 19.1 µM
- TGI [43]: 25.3 µM
- TGI [44]: > 52.3 µM
- TGI [45]: 28.4 µM
- TGI [46]: 30.2 µM
- TGI [47]: 13.8 µM
- TGI [48]: 33.3 µM
- TGI [49]: 12.7 µM
- TGI [50]: 31.7 µM
- TGI [51]: 6.89 µM
- TGI [52]: 33.5 µM
- TGI [53]: 23.8 µM
- TGI [54]: 34.4 µM
- TGI [55]: 19.3 µM
- TGI [56]: 16.3 µM
